Broadly, the Ki is a measure of affinity in units of concentration, obtained from inhibition or displacement.

This assay has as its target Cannabinoid receptor 2 (Homo sapiens, UniProt P34972). In words: Competition Binding Assay. From the text:
Competitive binding assay using cannabinoid receptors.

Sequence of Cannabinoid receptor 2 (P34972 whole entry): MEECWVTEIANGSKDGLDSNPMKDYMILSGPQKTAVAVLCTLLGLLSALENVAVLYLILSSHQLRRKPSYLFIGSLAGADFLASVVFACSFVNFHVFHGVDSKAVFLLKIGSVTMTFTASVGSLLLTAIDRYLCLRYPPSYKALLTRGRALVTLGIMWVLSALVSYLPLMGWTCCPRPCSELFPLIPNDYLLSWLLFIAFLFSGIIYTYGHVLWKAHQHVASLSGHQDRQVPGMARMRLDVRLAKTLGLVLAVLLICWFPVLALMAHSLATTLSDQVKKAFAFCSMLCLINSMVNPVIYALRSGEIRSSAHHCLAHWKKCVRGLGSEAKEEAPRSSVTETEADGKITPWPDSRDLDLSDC

As for `CC1CCCN(Cc2cc(-c3ccc4c(c3)OCO4)ccc2OCC(=O)NCc2ccccc2F)C1` (stereo not drawn) [CB2 Inhibitor, 6], the affinity, expressed as Ki, was 4.44 µM.

In turn, `c1ccc2c(c1)CCCC2Nc1nc(CN2CCCCC2)nc2sc3c(c12)CCCC3` (stereo not drawn) [CB2 Inhibitor, 7] showed a Ki of 4.78 µM.

Turning to `CCC(CC)S(=O)(=O)c1cccc(-c2nnc(SCCN(C)C)n2C2CCCCCC2)c1` [CB2 Inhibitor, 9], the inhibitory constant (Ki) was 9.27 µM.

The compound `CCCn1c(SCC(=O)NCC2COc3ccccc3O2)nc2sc3c(c2c1=O)CCC3` (stereo not drawn) [CB2 Inhibitor, 12] displayed a Ki of 60.9 µM.

`Cc1cc(C(=O)COc2ccccc2C(N)=O)c(C)n1CCC1=CCCCC1` [CB2 Inhibitor, 4]: the Ki is 0.96 µM.

In turn, `CCCC(=NNC(=O)C1CC1(c1cccc(C)c1)c1cccc(C)c1)c1ccc(OC)cc1` (stereo not drawn) [CB2 Inhibitor, 10] registered a Ki of 14.7 µM.

As to `CC1N(C)c2ccc(P(=O)(c3ccccc3)c3ccccc3)cc2C1(C)C` (stereo not drawn) [CB2 Inhibitor, 3], the affinity, expressed as Ki, was 0.54 µM.

`CC1=CC(C(=O)CN2C(=O)NC(C)(c3ccc(F)cc3)C2=O)=C(C)C1CCc1cccs1` (stereo not drawn) [CB2 Inhibitor, 11] gave a Ki of 36.9 µM. Compared with the last compound, the Ki is about 68-fold higher.

Compound `C#CN1CCC2=C(C1)c1c(O)cc(C(C)C(C)CCCCC)cc1OC2(C)C` (stereo not drawn) [CB2 Inhibitor, 1] gave a Ki of 0.0023 µM.

With `O=C(CCC(=O)N1CCC(n2c(=O)[nH]c3ccccc32)CC1)c1ccc2c(c1)CCCC2` [CB2 Inhibitor, 8], the Ki stood at 8.83 µM.

The compound `CN(C)C(CNC(=O)C1(Cc2ccccc2)CCCCC1)c1cccs1` (stereo not drawn) [CB2 Inhibitor, 13] showed a Ki of 71.4 µM.

As to `COc1ccc(CN2CCCn3c4c(c5cc(C)ccc53)CCCC42)cc1O` (stereo not drawn) [CB2 Inhibitor, 5], the affinity corresponds to a Ki of 2.36 µM.

As to `Cc1cc(C)c(CNC(=O)c2cc3c(C)nn(Cc4ccc(F)cc4)c3s2)c(=O)[nH]1` [CB2 Inhibitor, 2], the Ki was 0.143 µM.
